Experimental data published in article PMC11387175, “Model informed dose regimen optimizing in development of leritrelvir for the treatment of mild or moderate COVID-19” (Frontiers in Pharmacology, 2024).

What was measured:
Alpha variant = tested on: Alpha variant; design: method as in Chen et al., 2024; conditions: ref Chen et al., 2024, read-out: concentration for 90% of maximal effect (EC90); cited from earlier work
[1] = Phase I safety and tolerability in healthy subjects; assay type: in vivo, human; conditions: monotherapy or in combination with ritonavir
Source text: (§1) The data obtained from a phase I clinical trial assessing the safety, tolerability, pharmacokinetics, and impact of food on leritrelvir Pharmacokinetics in healthy adult subjects (NCT05829551) were utilized in the PopPK analysis. The trial was designed as a randomized, double-blind, placebo-controlled study involving escalating single and multiple doses. The study design is outlined in Figure 1. In the single-ascending dose (SAD) arm, participants received leritrelvir tablets alone or with 100 mg of RTV. In the multiple-ascending dose (MAD) arm, leritrelvir tablets were given alone or with 100 mg RTV twice-daily on Days 1–4, followed by a single dose on Day 5, or thrice-daily on Days 1–4, followed by a single dose on Day 5. In the food consumption study arm, leritrelvir tablets alone or with 100 mg RTV were administered once during each dosing period after an overnight fast of at least 10 h or following a standard meal (high-fat, high-calorie) on Day 1. Each dosing period included a single administration, totaling two administrations, with a minimum interval of 8 days between periods.

Delta variant = tested on: Delta variant; design: method as in Chen et al., 2024; conditions: ref Chen et al., 2024, read-out: concentration for 90% of maximal effect (EC90); cited from earlier work
SARS-CoV-2 [2] = conditions: COVID-19 patients; 400 mg TID alone or 300 mg with 100 mg RTV BID; ref Wang et al., 2023; cited from earlier work
Omicron BA.5 = tested on: Omicron BA.5; design: method as in Chen et al., 2024; conditions: ref Chen et al., 2024, read-out: concentration for 90% of maximal effect (EC90); cited from earlier work
wild-type strain = tested on: wild-type strain; design: method as in Chen et al., 2024; conditions: ref Chen et al., 2024, read-out: concentration for 90% of maximal effect (EC90); cited from earlier work
Omicron BA.1 = tested on: Omicron BA.1; design: method as in Chen et al., 2024; conditions: ref Chen et al., 2024, read-out: concentration for 90% of maximal effect (EC90); cited from earlier work
[3] = tested on: CYP1A2, CYP2B6, CYP2C8, CYP2C9, CYP2C19, and CYP2D6; assay: Metabolizing enzyme identification (in-house data); assay type: in vitro ADME
[4] = Population pharmacokinetic analysis of phase I plasma concentrations (SAD, MAD, food effect); assay type: in vivo, human
Source text: as §1
FIGURE 1 Overall study design diagram. The study comprised three distinct components: a single-ascending dose study (SAD), a food effect study, and a multiple-ascending dose study (MAD). The SAD portion of the study was divided into two parts: Part 1 involved a dose escalation study of single-agent administration of RAY1216 tablets (S-1, S-2, and S-3), while Part 2 focused on the combination of RAY1216 tablets with 100 mg RTV (S-1R, S-2R, and S-3R). It should be noted that the S-2R and S-3R groups were initially planned but were ultimately not conducted due to dose-undetermined factors. The food effect study (FE) entails the administration of single doses of RAY1216 tablets at 800 mg (FE-1) and in combination with RTV at 500 mg (FE-2) to groups of 12 subjects. Group A undergoes a fasting administration cycle followed by a postprandial administration cycle, while Group B experiences the reverse order of administration cycles. The two cycles consist of crossover administration with a washout period lasting a minimum of 8 days. The MAD involves the co-administration of RAY1216 tablets (300 mg, 500 mg, and 700 mg) with 100 mg RTV in a BID dosing regimen, with escalating doses administered over 5 consecutive days and solely in the morning on the 5th day. Furthermore, a 400 mg RAY1216 single-agent TID dosing regimen administered over 5 consecutive days with administration limited to the morning on the 5th day.
Leritrelvir PK data was analyzed utilizing nonlinear mixed-effects modeling (NONMEM) ([Lindstrom and Bates, 1990]) and implemented with NONMEM version 7.5 (ICON Development Solutions. Ellicott City, Maryland, USA). The estimation algorithm used was the first-order conditional estimation method with interaction (FOCEI) of interindividual variability and residual variability. Perl Speaks NONMEM (PsN) version 4.2 (Uppsala University, Sweden) ([Lindbom et al., 2004]; [Lindbom et al., 2005]) and R version 4.1.2 were used as tools for executing NONMEM and summarizing outcomes. The model evaluated the impact of age, weight, body mass index, gender, albumin, alanine aminotransferase, aspartate aminotransferase, alkaline phosphatase, serum creatinine, creatinine clearance rate, total bilirubin, gamma-glutamyl transpeptidase, food consumption, and concomitant medication on the pharmacokinetics of leritrelvir. The final PopPK model was determined through a stepwise forward addition (p < 0.01) and backward deletion (p < 0.001) approach. The specifics of the model development process are outlined in the Supplementary Material. Evaluation of the final PopPK model was conducted using goodness-of-fit plots, prediction-corrected visual predictive check (pcVPC) ([Bergstrand et al., 2011]), bootstrapping ([Ette, 1997]), and shrinkage assessments ([Savic and Karlsson, 2009]). […]

SARS-CoV-2 [5] = tested on: SARS-CoV-2; design: method as in Zhan et al., 2024; conditions: ref Zhan et al., 2024, cited from earlier work
CYP3A = assay: Metabolizing enzyme identification (in-house data); assay type: in vitro ADME
Beta variant = tested on: Beta variant; design: method as in Chen et al., 2024; conditions: ref Chen et al., 2024, read-out: concentration for 90% of maximal effect (EC90); cited from earlier work
wild strain of COVID-19 = assay: Target concentration needed to achieve EC90; assay type: cell-based, SARS-CoV-2
[6] = tested on: SARS-CoV-2 βCoV/KOR/KCDC03/2020 strain; design: method as in Chen et al., 2023; conditions: Vero cells, ref Chen et al., 2023, cited from earlier work

Structure (SMILES): O=C(NC1CCCC1)C(=O)[C@H](C[C@@H]1CCNC1=O)NC(=O)[C@@H]1[C@H]2CCC[C@H]2CN1C(=O)[C@@H](NC(=O)C(F)(F)F)C1CCCCC1 [leritrelvir]
- EC90 (Alpha variant): 351 nM
- Grade 3 or higher adverse events (AEs) [1]: No Grade 3 or higher adverse events (AEs) were reported
- changes in corrected QT (QTc) interval, pulse rate (PR) interval, heart rate, and blood pressure [1]: no meaningful changes were observed
- dose-dependent adverse reactions [1]: No dose-dependent adverse reactions were observed
- serious adverse events (SAEs) [1]: no serious adverse events (SAEs) occurred
- EC90 (Delta variant): 254 nM
- duration of viral shedding (SARS-CoV-2 [2]): 166 h
- duration of viral shedding shorter than the placebo group (SARS-CoV-2 [2]): 4.2 days
- EC90 (Omicron BA.5): 363 nM
- EC90 (wild-type strain): 228 nM
- EC90 (Omicron BA.1): 208 nM
- involvement of other CYP isoforms in metabolism [3]: minimal to no involvement
- ratio of estimated clearance of leritrelvir to leritrelvir combined with RTV ([4]; 44.4/12.2): 3.64
- Absorption lag time, ALAG1: Bootstrapping Median (95% CI) ([4]; Comb (with RTV)): 0.166 (0.131–0.185) hr
- Absorption lag time, ALAG1: Population model estimates (%RSE) [95% CI] ([4]; Comb (with RTV)): 0.166 h
- Absorption rate, Ka: Bootstrapping Median (95% CI) ([4]; Comb (with RTV)): 0.170 (0.154–0.185) hr^-1
- Absorption rate, Ka: Population model estimates (%RSE) [95% CI] ([4]; Comb (with RTV)): 0.169 h⁻¹
- Clearance, CL: Bootstrapping Median (95% CI) ([4]; Comb (with RTV)): 12.2 (10.7–14.0) L/h
- Clearance, CL: Population model estimates (%RSE) [95% CI] ([4]; Comb (with RTV)): 12.2 L/h
- Duration of zero order absorption, D1: Bootstrapping Median (95% CI) ([4]; Comb (with RTV)): 0.0719 (0.0412–0.129) hr
- Duration of zero order absorption, D1: Population model estimates (%RSE) [95% CI] ([4]; Comb (with RTV)): 0.0684 h
- Intercompartment clearance between the central compartment and peripheral compartment, Q: Population model estimates (%RSE) [95% CI] ([4]; Comb (with RTV)): 0.611 L/h
- Volume distribution of peripheral compartment, Vc: Bootstrapping Median (95% CI) ([4]; Comb (with RTV)): 9.90 (7.68–13.2) L
- Volume distribution of peripheral compartment, Vc: Population model estimates (%RSE) [95% CI] ([4]; Comb (with RTV)): 9.78 L
- Volume distribution of peripheral compartment, Vp: Bootstrapping Median (95% CI) ([4]; Comb (with RTV)): 9.24 (6.93–12.8) L
- Volume distribution of peripheral compartment, Vp: Population model estimates (%RSE) [95% CI] ([4]; Comb (with RTV)): 9.30 L
- Absorption lag time, ALAG1: Bootstrapping Median (95% CI) ([4]; Mono (leritrelvir alone)): 0.188 (0.164–0.2) hr
- Absorption lag time, ALAG1: Population model estimates (%RSE) [95% CI] ([4]; Mono (leritrelvir alone)): 0.189 h
- Absorption rate, Ka: Bootstrapping Median (95% CI) ([4]; Mono (leritrelvir alone)): 0.292 (0.258–0.329) hr^-1
- Absorption rate, Ka: Population model estimates (%RSE) [95% CI] ([4]; Mono (leritrelvir alone)): 0.293 h⁻¹
- Clearance, CL: Bootstrapping Median (95% CI) ([4]; Mono (leritrelvir alone)): 44.2 (39.0–50.7) L/h
- Clearance, CL: Population model estimates (%RSE) [95% CI] ([4]; Mono (leritrelvir alone)): 44.4 L/h
- Duration of zero order absorption, D1: Bootstrapping Median (95% CI) ([4]; Mono (leritrelvir alone)): 0.078 (0.0359–0.171) hr
- Duration of zero order absorption, D1: Population model estimates (%RSE) [95% CI] ([4]; Mono (leritrelvir alone)): 0.0722 h
- Intercompartment clearance between the central compartment and peripheral compartment, Q: Population model estimates (%RSE) [95% CI] ([4]; Mono (leritrelvir alone)): 5.57 L/h
- Volume distribution of peripheral compartment, Vc: Bootstrapping Median (95% CI) ([4]; Mono (leritrelvir alone)): 18.7 (14.3–25.3) L
- Volume distribution of peripheral compartment, Vc: Population model estimates (%RSE) [95% CI] ([4]; Mono (leritrelvir alone)): 18.9 L
- Volume distribution of peripheral compartment, Vp: Bootstrapping Median (95% CI) ([4]; Mono (leritrelvir alone)): 58.2 (44.7–79.5) L
- Volume distribution of peripheral compartment, Vp: Population model estimates (%RSE) [95% CI] ([4]; Mono (leritrelvir alone)): 58.2 L
- Occasion variability of CL after multiple dose for 12 h, OC1.CL: Bootstrapping Median (95% CI) ([4]; cell for OC2.CL (96 h) is empty below): 18.7 (10–29.3) %
- Occasion variability of Vc after multiple dose for 12 h, OC1.Vc: Bootstrapping Median (95% CI) ([4]; cell for OC2.Vc (96 h) is empty below): 53.1 (34–82.5) %
- Proportional error of fed subjects within 2 h after dose: Bootstrapping Median (95% CI) ([4]; fed subjects, 0-2 h post-dosing): 70.5 (56.4–80.7) %
- Impact of food consumption on D1, D1.FED: Bootstrapping Median (95% CI) ([4]; fed vs fasted): 1.33 (1.22–1.49)
- Impact of food consumption on F1, F1.FED: Bootstrapping Median (95% CI) ([4]; fed vs fasted): 1.50 (1.25–1.82)
- Impact of food consumption on Ka, Ka.FED: Bootstrapping Median (95% CI) ([4]; fed vs fasted): 21.3 (10.8–41)
- Inter-individual variability CL: Bootstrapping Median (95% CI) ([4]; in vivo): 29.9 (25.5–34.6) %
- Inter-individual variability D1: Bootstrapping Median (95% CI) ([4]; in vivo): 152 (114–189) %
- Inter-individual variability Ka: Bootstrapping Median (95% CI) ([4]; in vivo): 25.3 (20.7–29.4) %
- Inter-individual variability Vc: Bootstrapping Median (95% CI) ([4]; in vivo): 79.8 (64.7–93.4) %
- Inter-individual variability Vp: Bootstrapping Median (95% CI) ([4]; in vivo): 43.6 (31–52.5) %
- Residual variability, Proportional residual: Bootstrapping Median (95% CI) ([4]; in vivo): 24.2 (22.4–26.1) %
- enhancement of exposure of leritrelvir by co-administration with RTV ([4]; with RTV vs alone): approximately 4 fold
- decrease in the SARS-CoV-2 viral load compared to the placebo (SARS-CoV-2 [5]; 400 mg TID, after a 3-day treatment period): approximately tenfold
- reduction in the time to sustained clinical recovery of all 11 COVID-19 symptoms compared to the placebo (SARS-CoV-2 [5]; oral 400 mg TID for 5 days): 20.3 h
- role of CYP3A in metabolism (CYP3A): primary metabolizing enzyme
- EC90 (Beta variant): 688 nM
- concentration needed to achieve EC90 (wild strain of COVID-19): 0.165 µg/mL
- IC90 ([6]; read-out: 90% inhibitory concentration (IC90)): 92 nM
- IC50 ([6]; read-out: half maximal inhibitory concentration (IC50)): 36 nM
